Reference: article PMC11604428, “UPLC-ESI/MS^n metabolic profiling of Cedrela odorata L. and Toona ciliata M. Roem and in vitro investigation of their anti-diabetic activity supported with molecular docking studies” (Frontiers in Chemistry, 2024)

How the values were obtained:
C57BL/KsJ-db/db mice = system: C57BL/KsJ-db/db mice; design: method as in Jung et al., 2006; conditions: ref Jung et al., 2006; cited from earlier work
α-amylase [1] = test: α-Amylase inhibition assay; type: biochemical; conditions: mean ± SD, triplicate
Method: The α-amylase inhibitory activities of the tested Cedrela extracts were determined according to the standard published procedure with minor amendments ([Kazeem et al., 2013]). The enzyme solution was prepared by dissolving α-amylase in 20 mM phosphate buffer (pH = 6.9) at a concentration of 0.50 mg/mL. Then, 1 mL of different concentrations of the tested extract (0.01–100 μg/mL) was mixed with 1 mL of enzyme solution and allowed to sit at room temperature for 10 min. After incubation, 1 mL of 0.50% starch solution was included to the mixture and further incubated at room temperature for 10 min. The reaction was then ended by addition of 3,5-dinitrosalicylic acid (2 mL) and then heating the reaction mixture in a boiling water bath for 5 min. After cooling, the absorbance of the mixture was colorimetrically determined at 565 nm. Pioglitazone was used as a standard drug.
The assays were performed in triplicates, and the obtained values are stated as mean ± SD. For the in vitro investigation of α-amylase and α-glucosidase inhibitory properties, the IC50 was obtained from the graph plots of the dose–response curves at each oil concentration via Graph Pad Prism® software (San Diego, CA, United States).

[2] = system: streptozotocin-induced diabetic mice; design: method as in Lee et al., 2010; Jang et al., 2009; Jang et al., 2010; conditions: streptozotocin-nicotinamide-induced, streptozotocin + high-fat diet and streptozotocin-induced diabetic mice, ref Lee et al., 2010, Jang et al., 2009; cited from earlier work
α-glucosidase = α-glucosidase (Saccharomyces cerevisiae, UniProt P53341); design: method as in Shen et al., 2023; conditions: ref Shen et al., 2023; cited from earlier work
α-amylase [3] = system: α-amylase; design: method as in Shen et al., 2023; conditions: ref Shen et al., 2023; cited from earlier work

Sequence of α-glucosidase (P53341 whole entry): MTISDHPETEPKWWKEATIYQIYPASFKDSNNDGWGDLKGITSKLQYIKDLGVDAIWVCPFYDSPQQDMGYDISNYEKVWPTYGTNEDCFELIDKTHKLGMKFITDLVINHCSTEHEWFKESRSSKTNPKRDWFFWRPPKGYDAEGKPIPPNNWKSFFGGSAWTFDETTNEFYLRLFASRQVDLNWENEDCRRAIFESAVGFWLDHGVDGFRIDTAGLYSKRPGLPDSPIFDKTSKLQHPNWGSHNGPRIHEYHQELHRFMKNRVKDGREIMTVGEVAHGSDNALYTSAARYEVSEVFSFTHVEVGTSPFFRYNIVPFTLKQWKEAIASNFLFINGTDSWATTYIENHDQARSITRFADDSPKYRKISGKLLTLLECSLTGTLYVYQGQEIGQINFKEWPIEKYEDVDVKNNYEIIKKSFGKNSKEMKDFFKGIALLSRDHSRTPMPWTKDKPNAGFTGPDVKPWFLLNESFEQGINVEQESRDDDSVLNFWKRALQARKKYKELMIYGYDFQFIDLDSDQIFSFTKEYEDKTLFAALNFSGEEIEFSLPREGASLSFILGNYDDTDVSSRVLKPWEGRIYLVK

## O=C(O)/C=C/c1ccc(O)c(O)c1 [Caffeic acid]
C57BL/KsJ-db/db mice
  anti-hyperglycemic effect: anti-hyperglycemic properties

## CCc1ccc(CCOc2ccc(CC3SC(=O)NC3=O)cc2)nc1 (stereo not shown) [Pioglitazone]
α-amylase [1]; concentration 0.01 µg/mL
  α-Amylase inhibition (%): 12.50 ± 2.05%
α-amylase [1]; concentration 0.10 µg/mL
  α-Amylase inhibition (%): 27.70 ± 1.28%
α-amylase [1]; concentration 1.00 µg/mL
  α-Amylase inhibition (%): 45.40 ± 2.45%
α-amylase [1]; concentration 10.00 µg/mL
  α-Amylase inhibition (%): 80.60 ± 0.23%
α-amylase [1]; concentration 100.00 µg/mL
  α-Amylase inhibition (%): 91.70 ± 1.05%
α-amylase [1]
  α-Amylase inhibition IC50: 2.17 ± 0.23 µg/mL

## C[C@H]1[C@H](C)CC[C@]2(C(=O)O)CC[C@]3(C)C(=CC[C@@H]4[C@@]5(C)CC[C@H](O)C(C)(C)[C@@H]5CC[C@]43C)[C@H]12 [Ursolic acid]
[2]
  effect on blood glucose levels: positive effect on reducing blood glucose levels

## O=c1c(O)c(-c2ccc(O)c(O)c2)oc2cc(O)cc(O)c12 [quercetin]
α-glucosidase
  inhibition of α-glucosidase activity: markedly inhibited
α-amylase [3]
  inhibition of α-amylase activity: markedly inhibited
